Source: patent US9241958B2, “Anticoagulant antagonist and hemophilia procoagulant” (The Board of Trustees of the University of Illinois, priority 2007, dated 2016)

Legend:
[1] = cited from earlier work
fresh whole blood = assay: Whole blood thromboelastometry (ROTEM), clotting initiated with dilute thromboplastin; format: biochemical, human
Experimental: Thromboelastography was carried out using the ROTEM® four channel system (Pentapharm, Munich, Germany) using the supplied software package. Fresh, non-anticoagulated whole blood was collected via atraumatic venipuncture using a two-syringe technique. The initial 3 ml of blood was discarded and the blood sample to be used was then drawn into a 3 ml plain plastic syringe. The blood was immediately transferred to the supplied disposable plastic cups (280 μL per cup) and thoroughly mixed with 20 μL buffer (TBS: 50 mM Tris-HCl pH 7.4, 150 mM NaCl, 0.02% NaN3) or additives in TBS. Each fresh whole blood sample was divided into 4 cups containing the following: TBS only (control), polyP75, anticoagulant drug only, or both polyP75 and anticoagulant drug. Clotting was then initiated immediately via addition of 20 μL of tissue factor containing clotting reagent (INNOVIN® diluted in TBS). Thromboelastography measurement was initiated within 120 seconds of blood drawing for all samples. The final concentrations in the reaction were 87.5% whole blood, INNOVIN® diluted 1:17,000, 0 or 100 μM polyP, 0 or added anticoagulant drug (0.1 U/mL unfractionated heparin or 2.7 μg/mL enoxaparin or 1 μg/mL argatroban, or 0.2 μg/mL rivaroxaban). The measurements were continued for 2 hours and the clot time (CT), clot formation time (CFT), alpha angle (α angle), and maximum clot firmness (MCF) were recorded as supplied by the ROTEM® software. Each anticoagulant drug was added in vitro to whole blood from 5 different individuals.
(§1) Statistical analyses were performed using SigmaStat statistical software version 2.03 (SPSS, Inc). In all cases, two-tailed t-tests were conducted at the 0.05 level of significance. Clot times obtained using the Dilute PT Test with and without added polyP in plasma-based experiments were compared using unpaired t-tests. Results for each variable obtained from the ROTEM® experiments (CT, CFT, a angle, MCF) were compared separately. For each group of anticoagulants, parameters obtained for control blood samples were compared to those for blood+polyP, blood+anticoagulant, and blood+anticoagulant+polyP. The latter two samples were also directly compared. To account for inter-individual variation, thromboelstography parameters were compared using paired t-tests.

factor V = factor V (Homo sapiens, UniProt P12259); assay: Studies with purified proteins: activation of factor V; format: biochemical
Chain of factor V (P12259 29-2224): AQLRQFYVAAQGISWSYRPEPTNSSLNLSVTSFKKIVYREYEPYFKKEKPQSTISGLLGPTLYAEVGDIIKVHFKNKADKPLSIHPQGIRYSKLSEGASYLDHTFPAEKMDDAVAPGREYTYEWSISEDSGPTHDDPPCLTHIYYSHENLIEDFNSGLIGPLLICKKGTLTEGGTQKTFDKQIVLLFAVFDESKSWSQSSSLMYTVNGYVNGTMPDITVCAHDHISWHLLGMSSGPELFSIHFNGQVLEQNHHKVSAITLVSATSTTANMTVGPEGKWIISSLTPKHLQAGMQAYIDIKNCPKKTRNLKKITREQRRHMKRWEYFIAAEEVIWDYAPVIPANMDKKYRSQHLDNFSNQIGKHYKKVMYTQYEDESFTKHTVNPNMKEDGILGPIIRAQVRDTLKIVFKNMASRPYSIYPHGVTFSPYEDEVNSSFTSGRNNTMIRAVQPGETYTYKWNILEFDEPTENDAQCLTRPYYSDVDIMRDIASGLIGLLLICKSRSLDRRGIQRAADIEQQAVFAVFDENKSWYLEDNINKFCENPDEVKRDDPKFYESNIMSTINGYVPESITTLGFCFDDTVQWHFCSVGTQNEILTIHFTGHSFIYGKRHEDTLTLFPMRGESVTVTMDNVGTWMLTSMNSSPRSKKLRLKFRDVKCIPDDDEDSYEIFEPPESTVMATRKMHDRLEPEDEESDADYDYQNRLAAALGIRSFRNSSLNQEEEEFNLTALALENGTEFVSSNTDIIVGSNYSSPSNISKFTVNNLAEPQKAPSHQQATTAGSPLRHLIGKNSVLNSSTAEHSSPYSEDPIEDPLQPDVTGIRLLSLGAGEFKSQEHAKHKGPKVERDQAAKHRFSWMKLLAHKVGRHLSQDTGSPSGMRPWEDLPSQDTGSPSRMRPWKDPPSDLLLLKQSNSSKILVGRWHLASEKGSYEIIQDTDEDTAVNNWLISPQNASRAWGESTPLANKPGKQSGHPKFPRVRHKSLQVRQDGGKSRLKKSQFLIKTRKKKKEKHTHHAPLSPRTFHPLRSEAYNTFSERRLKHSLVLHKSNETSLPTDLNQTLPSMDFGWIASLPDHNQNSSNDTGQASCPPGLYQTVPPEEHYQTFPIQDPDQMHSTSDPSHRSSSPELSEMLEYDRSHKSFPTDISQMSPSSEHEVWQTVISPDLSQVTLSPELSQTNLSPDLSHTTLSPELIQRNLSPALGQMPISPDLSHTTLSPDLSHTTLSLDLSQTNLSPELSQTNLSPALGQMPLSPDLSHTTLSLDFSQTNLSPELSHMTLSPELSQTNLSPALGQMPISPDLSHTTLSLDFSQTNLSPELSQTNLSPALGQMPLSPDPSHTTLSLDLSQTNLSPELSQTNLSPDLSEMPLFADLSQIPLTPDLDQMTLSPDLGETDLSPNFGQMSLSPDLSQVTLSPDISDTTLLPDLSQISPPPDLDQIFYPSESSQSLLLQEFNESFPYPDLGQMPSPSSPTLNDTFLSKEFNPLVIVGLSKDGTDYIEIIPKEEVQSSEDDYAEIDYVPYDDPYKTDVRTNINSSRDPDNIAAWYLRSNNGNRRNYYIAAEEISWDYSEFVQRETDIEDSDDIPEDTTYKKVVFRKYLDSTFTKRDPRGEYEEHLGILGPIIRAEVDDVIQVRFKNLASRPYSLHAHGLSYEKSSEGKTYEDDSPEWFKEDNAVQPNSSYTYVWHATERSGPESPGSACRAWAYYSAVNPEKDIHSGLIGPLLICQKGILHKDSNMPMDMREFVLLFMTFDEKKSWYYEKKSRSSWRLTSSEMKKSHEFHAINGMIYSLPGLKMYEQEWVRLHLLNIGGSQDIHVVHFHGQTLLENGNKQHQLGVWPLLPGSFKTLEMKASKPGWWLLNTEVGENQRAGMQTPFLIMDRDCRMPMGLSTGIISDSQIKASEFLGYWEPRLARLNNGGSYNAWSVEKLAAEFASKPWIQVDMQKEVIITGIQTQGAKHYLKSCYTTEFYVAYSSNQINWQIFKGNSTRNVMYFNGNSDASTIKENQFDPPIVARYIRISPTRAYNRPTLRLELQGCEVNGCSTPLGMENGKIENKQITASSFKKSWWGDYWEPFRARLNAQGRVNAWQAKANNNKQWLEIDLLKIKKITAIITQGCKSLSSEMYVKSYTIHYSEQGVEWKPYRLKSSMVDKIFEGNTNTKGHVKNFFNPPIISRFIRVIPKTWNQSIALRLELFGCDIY

thrombin = thrombin (Homo sapiens, UniProt P00734); assay: Studies with purified proteins: inactivation of thrombin by antithrombin; format: biochemical
[2] = test system: plasma from patients with hemophilia B (FIX<1%); assay: Dilute PT Test, plasma clot time, hemophilia B patients; format: biochemical, human
Experimental: (§2) The following describes the use of the Dilute PT Test to evaluate the effectiveness of polyP in treat hemophilia and reversing the effects of anticoagulant drugs. Anticoagulant drugs were added to pooled normal plasma in vitro at concentrations of up 1 U/mL for unfractionated heparin, 100 μg/mL for enoxaparin, 3 μg/mL for argatroban, and 1 μg/mL for rivaroxaban. Plasma from a patient deficient in FVIII was evaluated with and without the addition of up to 0.5 μg/mL FVIII or 20 nM FVIIa. Plasma from a patient deficient in FIX was evaluated with and without the addition of up to 4 μg/mL FIX or 20 nM FVIIa. INR values for samples from patients receiving COUMADIN® ranged from 1.7 to 4.8.
(§3) Plasma clots were formed in 96-well medium binding polystyrene microplates (Corning Inc., Corning, N.Y.). Plasma (80 μL) was added to the well and clotting was initiated by addition of 160 uL of clotting reagent. The clotting reagent consisted of RecombiPlasTin (as a source of tissue factor) diluted 200 fold (for normal and anticoagulated plasmas) or 8000 fold (for hemophilia plasmas) into buffer containing 100 μM phospholipid vesicles (20% phosphatidylserine and 80% phosphatidylcholine made by sonication), 12.5 mM CaCl2, 25 mM Tris HCl pH 7.4, 0.1% bovine serum albumin, and 150 mM NaCl. Clotting reagent was divided into reagent without added polyP and reagent with added 100 μM polyP75.
(§4) Clotting was evaluated by monitoring the change in turbidity (A405) for 1 hour at room temperature using Softmax software and a Spectramax microplate reader (Molecular Devices Corporation, Sunnyvale, Calif.). […] All assays were repeated 5 times.
as §1

[3] = test system: plasma from patients with hemophilia A (FVIII<1%); assay: Dilute PT Test, plasma clot time, hemophilia A patients; format: biochemical, human
Experimental: as §2, §3, §4, §1

[4] = test system: plasma from patients receiving COUMADIN®; assay: Dilute PT Test, plasma clot time, patients receiving COUMADIN; format: biochemical, human; conditions: 7 patients, INR 1.7 to 4.8; polyP75 added in vitro
Experimental: as §2
Plasma clots were formed in 96-well medium binding polystyrene microplates (Corning Inc., Corning, N.Y.). Plasma (80 μL) was added to the well and clotting was initiated by addition of 160 uL of clotting reagent. […]
Clotting was evaluated by monitoring the change in turbidity (A405) for 1 hour at room temperature using Softmax software and a Spectramax microplate reader (Molecular Devices Corporation, Sunnyvale, Calif.). […]

fibrinogen = target: T1, fibrinogen (Homo sapiens, UniProt P02671+P02675+P02679); assay: Clot structure of thrombin cleaved fibrinogen; format: biochemical
T1 sequence (P02671 20-644 isoform P02671-2 limits assumed): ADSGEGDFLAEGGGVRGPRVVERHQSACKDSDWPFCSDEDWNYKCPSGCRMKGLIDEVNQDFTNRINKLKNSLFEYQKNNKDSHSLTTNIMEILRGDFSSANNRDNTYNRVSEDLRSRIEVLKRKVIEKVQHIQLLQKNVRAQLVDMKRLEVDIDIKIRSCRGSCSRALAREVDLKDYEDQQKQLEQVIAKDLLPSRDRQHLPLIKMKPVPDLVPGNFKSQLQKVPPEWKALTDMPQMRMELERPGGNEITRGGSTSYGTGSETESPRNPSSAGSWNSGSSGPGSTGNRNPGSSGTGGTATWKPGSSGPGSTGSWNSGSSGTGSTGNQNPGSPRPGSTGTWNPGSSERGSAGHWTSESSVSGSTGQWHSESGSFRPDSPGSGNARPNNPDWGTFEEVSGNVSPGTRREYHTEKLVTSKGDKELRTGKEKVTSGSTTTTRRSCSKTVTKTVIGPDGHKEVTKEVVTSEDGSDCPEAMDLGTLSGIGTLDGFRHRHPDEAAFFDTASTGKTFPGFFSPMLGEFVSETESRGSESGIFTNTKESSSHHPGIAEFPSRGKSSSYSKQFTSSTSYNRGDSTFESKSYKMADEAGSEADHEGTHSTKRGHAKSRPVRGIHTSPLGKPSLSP
T1 sequence (P02675 31-491): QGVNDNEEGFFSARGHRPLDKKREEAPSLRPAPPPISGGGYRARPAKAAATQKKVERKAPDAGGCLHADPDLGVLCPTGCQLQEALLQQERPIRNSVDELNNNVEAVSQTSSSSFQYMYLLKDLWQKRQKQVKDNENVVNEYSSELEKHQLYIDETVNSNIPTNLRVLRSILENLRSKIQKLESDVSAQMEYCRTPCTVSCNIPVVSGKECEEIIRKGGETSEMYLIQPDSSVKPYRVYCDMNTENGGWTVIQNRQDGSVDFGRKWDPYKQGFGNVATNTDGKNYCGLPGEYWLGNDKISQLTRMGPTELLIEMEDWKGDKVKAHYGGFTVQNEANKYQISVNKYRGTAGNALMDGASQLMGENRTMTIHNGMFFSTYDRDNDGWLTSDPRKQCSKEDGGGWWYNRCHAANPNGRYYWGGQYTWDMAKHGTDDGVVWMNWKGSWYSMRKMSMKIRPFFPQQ
T1 sequence (P02679 27-437 isoform P02679-2 limits assumed): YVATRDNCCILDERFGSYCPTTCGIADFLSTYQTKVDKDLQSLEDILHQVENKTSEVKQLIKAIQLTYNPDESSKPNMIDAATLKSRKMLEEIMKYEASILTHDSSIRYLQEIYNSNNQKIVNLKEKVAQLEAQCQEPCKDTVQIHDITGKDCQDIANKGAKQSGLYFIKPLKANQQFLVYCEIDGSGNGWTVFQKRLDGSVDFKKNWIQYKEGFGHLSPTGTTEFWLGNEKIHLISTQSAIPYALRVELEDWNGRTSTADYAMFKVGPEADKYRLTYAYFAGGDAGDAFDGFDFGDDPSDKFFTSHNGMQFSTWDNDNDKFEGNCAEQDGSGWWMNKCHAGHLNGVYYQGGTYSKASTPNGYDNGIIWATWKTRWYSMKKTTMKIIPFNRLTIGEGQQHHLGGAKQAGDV

pooled normal plasma = assay: Dilute PT Test, plasma clot time, anticoagulants added in vitro; format: biochemical, human
Experimental: as §2, §3, §4, §1

[5] = +Anticoagulant alone (0.1 U/mL unfractionated heparin, 2.7 μg/mL enoxaparin, 1 μg/mL argatroban or 0.2 μg/mL rivaroxaban)
[6] = +100 μM polyP, no anticoagulant, blood samples of the argatroban series
[7] = +100 μM polyP, no anticoagulant, blood samples of the enoxaparin series
[8] = +100 μM polyP, no anticoagulant, blood samples of the rivaroxaban series
[9] = +100 μM polyP, no anticoagulant, blood samples of the unfractionated heparin series
[10] = +Anticoagulant + polyP: 0.2 μg/mL rivaroxaban + 100 μM polyP
[11] = +Anticoagulant + polyP: 1 μg/mL argatroban + 100 μM polyP
[12] = +Anticoagulant + polyP: 2.7 μg/mL enoxaparin + 100 μM polyP
[13] = +Anticoagulant + polyP: 0.1 U/mL unfractionated heparin + 100 μM polyP

In the case of `CC1CNc2c(cccc2S(=O)(=O)N[C@@H](CCCNC(=N)N)C(=O)N2CC[C@@H](C)C[C@@H]2C(=O)O)C1` (some centres unmarked) [Argatroban, reference compound], the therapeutic plasma concentration ([1]; human, in vivo) is listed as “about 1 μg/ml”, the MCF (fresh whole blood; [5]) is listed as 49.4 mm and the α angle (fresh whole blood; [5]) is listed as 38.8 °.
In the case of Polyphosphate, the “effect on activation of factor V by thrombin or factor Xa” value (factor V) is reported as “accelerate the activation of factor V”, the “effect on ability of antithrombin to inactivate thrombin” value (thrombin) is reported as “neither enhanced nor blocked” and the “effect on ability of heparin to accelerate inactivation of thrombin by antithrombin” value (thrombin) is reported as “did not enhance or block”. For the same molecule, the “effect on plasma clot time” value ([2]; 4 patients with severe hemophilia B, polyP75 added in vitro) was “decreased the plasma clot time”, the “shortening of plasma clot time compared with factor replacement” value ([2]; FIX deficiency, polyP alone vs FIX restored to normal plasma concentration) was “greater degree than did restoring the missing clotting factor” and the “procoagulant effect in combination with rFVIIa” value ([2]; FIX-deficient plasma, all rFVIIa concentrations evaluated) was “additive”. For the same molecule, the “rFVIIa concentration giving similar shortening of plasma clot time” value ([2]; FIX-deficient plasma, polyP alone) was ~6 nM, the “clotting of patient plasma with polyP compared with pooled normal plasma” value ([2]; severe hemophilia B plasma in the presence of polyP) was “clotted more rapidly than did pooled normal plasma without polyP” and the “effect on plasma clot time” value ([3]; 5 patients with severe hemophilia A, polyP75 added in vitro) was “decreased the plasma clot time”. For the same molecule, the “shortening of plasma clot time compared with factor replacement” value ([3]; FVIII deficiency, polyP alone vs FVIII restored to normal plasma concentration) was “greater degree than did restoring the missing clotting factor”, the “procoagulant effect in combination with rFVIIa” value ([3]; FVIII-deficient plasma, all rFVIIa concentrations evaluated) was “additive” and the “rFVIIa concentration giving similar shortening of plasma clot time” value ([3]; FVIII-deficient plasma, polyP alone) was ~15 nM. For the same molecule, the “clotting of patient plasma with polyP compared with pooled normal plasma” value ([3]; severe hemophilia A plasma in the presence of polyP) was “clotted more rapidly than did pooled normal plasma without polyP”, the MCF (fresh whole blood; [6]) was 62.2 mm and the α angle (fresh whole blood; [6]) was 69.0 °. It also gave an MCF (fresh whole blood; [7]) of 64.8 mm, a α angle (fresh whole blood; [7]) of 71.0 ° and an MCF (fresh whole blood; [8]) of 64.0 mm. For the same molecule, the α angle (fresh whole blood; [8]) was 70.0 °, the MCF (fresh whole blood; [9]) was 63.0 mm and the α angle (fresh whole blood; [9]) was 69.6 °. For the same molecule, the MCF (fresh whole blood; [10]) was 63.6 mm, the α angle (fresh whole blood; [10]) was 67.4 ° and the MCF (fresh whole blood; [11]) was 59.4 mm. It also gave a α angle (fresh whole blood; [11]) of 56.4 °, an MCF (fresh whole blood; [12]) of 59.8 mm and a α angle (fresh whole blood; [12]) of 60.4 °. The MCF (fresh whole blood; [13]) was 52.4 mm, the α angle (fresh whole blood; [13]) was 46.8 ° and the “effect of polyP on CT, in words” value (fresh whole blood; blood containing argatroban) was “shortened but did not entirely normalize”. For the same molecule, the “effect of polyP on thromboelastography parameters, in words” value (fresh whole blood; blood containing enoxaparin) was “normalized all parameters”, the “effect of polyP on thromboelastography curve, in words” value (fresh whole blood; blood containing rivaroxaban) was “complete reversal of anticoagulation” and the “effect of polyP on CT, in words” value (fresh whole blood; blood containing unfractionated heparin) was “shortened, but did not completely normalize”. The “effect on plasma clot time” value [4] was “shortened, but did not completely normalize”, the “effect on fibrin clot structure” value (fibrinogen) was “thicker fibrin fibers that are more resistant to fibrinolysis” and the “reversal of the effective dose of heparins” value (pooled normal plasma; both types of heparin, decreased slope of the dose-response curve, 67 μM polyP75) was “approximately 50%”. The “shortening of clot time by polyP” value (pooled normal plasma; plasma with low molecular weight heparin (enoxaparin), all concentrations evaluated (20-100 μg/mL), 67 μM polyP75) was “approximately 50%”, the “shortening of clot time by polyP” value (pooled normal plasma; plasma with rivaroxaban, all concentrations tested (0.2-1 μg/mL), 67 μM polyP75) was “approximately 80%” and the “argatroban level giving equivalent prolongation of clot time” value (pooled normal plasma; plasma with supratherapeutic argatroban (1-3 μg/ml) + polyP) was “less than 0.5 μg/ml”. The “shortening of clot time by polyP” value (pooled normal plasma; plasma with unfractionated heparin, all concentrations evaluated (0.2-1 U/mL), 67 μM polyP75) was “approximately 50%” and the “effect on anticoagulant effect of drugs added in vitro to normal plasma” value (pooled normal plasma; unfractionated heparin, enoxaparin, argatroban, rivaroxaban, 67 μM polyP75) was “antagonized the anticoagulant effect of all four drugs”.
For `O=C(NC[C@H]1CN(c2ccc(N3CCOCC3=O)cc2)C(=O)O1)c1ccc(Cl)s1` [Rivaroxaban, reference compound], the plasma half-life ([1]; in a patient) is given as 7 to 10 h, the MCF (fresh whole blood; [5]) is given as 54.8 mm and the α angle (fresh whole blood; [5]) is given as 47.6 °.
